# Data from patent publication US8124626B2, “Methods of treating inflammations and infections with pyridinium salts” (Mycosol, Inc., priority 2007, dated 2012).
# How the values were obtained:
# [1] = as compared to the iodide salt
# Pasturella multocida = settings: Mueller-Hinton agar, 24 hours at 35° C.
# Rhizopus arrihizus = settings: Mueller-Hinton agar, 24 hours at 35° C.
# Microsporidium gypseum = settings: Mueller-Hinton agar, 24 hours at 35° C.
# [2] = system: Trichophyton mentagrophyt; settings: Mueller-Hinton agar, 24 hours at 35° C.
# Trichophyton equinium = settings: Mueller-Hinton agar, 24 hours at 35° C.
# Streptococcus algalactia = settings: Mueller-Hinton agar, 24 hours at 35° C.
# Epidermophyton floccsum = settings: Mueller-Hinton agar, 24 hours at 35° C.
# Fusarium solani = settings: Mueller-Hinton agar, 24 hours at 35° C.
# Vibrio cholerae = settings: Mueller-Hinton agar, 24 hours at 35° C.
# Candida albicans = settings: Mueller-Hinton agar, 24 hours at 35° C.
# Pseudomonas aerugenosa = settings: Mueller-Hinton agar, 24 hours at 35° C.
# Microsporidium canis = settings: Mueller-Hinton agar, 24 hours at 35° C.
# Staphylococcus aureus = settings: Mueller-Hinton agar, 24 hours at 35° C.
# Trichophyton rubrum = settings: Mueller-Hinton agar, 24 hours at 35° C.
# Cryptococcus neoformans = settings: Mueller-Hinton agar, 24 hours at 35° C.
# Bordella bronchiseptica = settings: Mueller-Hinton agar, 24 hours at 35° C.
# Saccharomyces cervisciae = settings: Mueller-Hinton agar, 24 hours at 35° C.
# Candida tropicalis = settings: Mueller-Hinton agar, 24 hours at 35° C.
# Aspergillus fumigatus = settings: Mueller-Hinton agar, 24 hours at 35° C.
# Streptococcus faecalis = settings: Mueller-Hinton agar, 24 hours at 35° C.
# Streptococcus pyogenes = settings: Mueller-Hinton agar, 24 hours at 35° C.
# E. coli = settings: Mueller-Hinton agar, 24 hours at 35° C.
# Aspergillus flavus = settings: Mueller-Hinton agar, 24 hours at 35° C.
# Pyrenophora teres = assay: Plant relevant mold panel, microtiter growth inhibition; type: cell-based; settings: Plant relevance: Barley; 18° C. for 7 days, optical density 405 nm
# Septonia tritici = assay: as above; type: cell-based; settings: Plant relevance: Wheat Leaf; 18° C. for 7 days, optical density 405 nm
# Rhizoctonia solani = assay: as above; type: cell-based; settings: Plant relevance: Rice Sheath; 18° C. for 7 days, optical density 405 nm
# [3] = system: Colletotrichum lagenarium; assay: as above; type: cell-based; settings: Plant relevance: Mellons; 18° C. for 7 days, optical density 405 nm
# Pyricularia oryzae = settings: Plant relevance: Rice; 18° C. for 7 days, optical density 405 nm
# Botrytis cinerea = assay: Plant relevant mold panel, microtiter growth inhibition; type: cell-based; settings: Plant relevance: Vegetable; 18° C. for 7 days, optical density 405 nm
# Phytophthora infestans = settings: Plant relevance: Tomato; 18° C. for 7 days, optical density 405 nm
# [4] = system: roundworms, threadworms, and whipworms; settings: reported; U.S. Pat. No. 3,075,975 and 3,085,935; cited from earlier work
molecule,measurement,setting,value
"1-Ethyl-(E,E)-2,6-bis[2-[4-(pyrrolidinyl)phenyl]ethenyl]pyridinium Chloride [formula I]",stability,[1],increased stability
same,MIC,Pasturella multocida,3.0 mg/L
same,MIC,Rhizopus arrihizus,6.25 mg/L
same,MIC,Microsporidium gypseum,1.6 mg/L
same,MIC,[2],1.6 mg/L
same,MIC,Trichophyton equinium,1.6 mg/L
same,MIC,Streptococcus algalactia,1.0 mg/L
same,MIC,Epidermophyton floccsum,1.6 mg/L
same,MIC,Fusarium solani,<0.4 mg/L
same,MIC,Vibrio cholerae,10.0 mg/L
same,MIC,Candida albicans,<0.006 mg/L
same,MIC,Pseudomonas aerugenosa,>100 mg/L
same,MIC,Microsporidium canis,1.6 mg/L
same,MIC,Staphylococcus aureus,0.3 mg/L
same,MIC,Trichophyton rubrum,1.6 mg/L
same,MIC,Cryptococcus neoformans,<0.4 mg/L
same,MIC,Bordella bronchiseptica,1.0 mg/L
same,MIC,Saccharomyces cervisciae,<0.4 mg/L
same,MIC,Candida tropicalis,<0.4 mg/L
same,MIC,Aspergillus fumigatus,<0.006 mg/L
same,MIC,Streptococcus faecalis,1.0 mg/L
same,MIC,Streptococcus pyogenes,1.0 mg/L
same,MIC,E. coli,>100 mg/L
same,MIC,Aspergillus flavus,6.25 mg/L
CC[n+]1c(/C=C/c2ccc(N3CCCC3)cc2)cccc1/C=C/c1ccc(N2CCCC2)cc1.[I-] [Stilbazium iodide],IC90,Pyrenophora teres,31 ppm a.i.
same,IC90,Septonia tritici,2 ppm a.i.
same,IC90,Rhizoctonia solani,2 ppm a.i.
same,IC90,[3],31 ppm a.i.
same,IC90,Pyricularia oryzae,8 ppm a.i.
same,IC90,Botrytis cinerea,0.5 ppm a.i.
same,IC90,Phytophthora infestans,2 ppm a.i.
same,anthelmintic effectiveness,[4],"effective against roundworms, threadworms, and whipworms"
